Source: patent US20050250819A1 (priority 2004, published 2005)

system: Type III-dependent secretion of ExoU by P. aeruginosa PA103; assay: Tertiary assay: Type III-dependent secretion of ExoU by P. aeruginosa PA103; format: cell-based; conditions: Pseudomonas aeruginosa, ExoU secreted into extracellular medium
Text: Tertiary assay: inhibition of Type III protein secretion of effectors from a Pseudomonas aeruginosa system. Type III protein secretion is used by P. aeruginosa to secrete several essential virulence determinants. One effector of the type III protein secretion system of P. aeruginosa PA103 is the virulence determinants ExoU.
The amount of Type III-dependent secretion of ExoU by P. aeruginosa PA103 can be determined in a cell-based assay by quantification of the 73.9 kDa ExoU protein secreted into the extracellular medium. Such quantitation can be achieved by growing strain PA103 in a deferrated medium in the presence of nitrilotriacetic acid (an inducer of Type III protein secretion in P. aeruginosa) and either in the presence or absence of putative inhibitors. After a prolonged growth period, the cells are sedimented and the supernatants concentrated by ammonium sulfate precipitation. The proteins in the resuspended pellets are separated by electrophoresis on SDS-polyacrylamide gels. After staining gels with Colloidal Blue™, the 73.9 kDa ExoU band is quantitated by scanning through an imager. The effects of inhibitors on the intensity of the ExoU band may be measured relative to that of untreated controls.

Q: How did the IC50 turn out when `O=C(N[C@@H](CSCc1ccccc1)C(=O)O)/C(=C\c1ccc(OC(F)(F)F)cc1)NC(=O)c1ccc(I)cc1` [Compound 22, (R)-3-Benzylsulfanyl-2-[2-(4-iodobenzoylamino)-3-(4-trifluoromethoxyphenyl)-acryloylamino]propionic acid] was run?
A: 47 µM

Q: With `O=C(N[C@@H](COCc1ccccc1)C(=O)O)/C(=C\c1ccc(-c2ccccc2)cc1)NC(=O)c1ccc(C(F)(F)F)cc1` [Compound 23, (S)-3-Benzyloxy-2-[3-biphenyl-4-yl-2-(4-trifluoromethylbenzoylamino)-acryloylamino]propionic acid] as the molecule, how does the IC50 read?
A: 29 µM

Q: How did the IC50 turn out when `O=C(N[C@@H](COCc1ccccc1)C(=O)O)/C(=C\c1ccc(Cl)c(Cl)c1)NC(=O)c1ccc(-c2ccccc2)cc1` [Compound 26, (S)-3-Benzyloxy-2-[2-[(biphenyl-4-carbonyl)amino]-3-(3,4-dichlorophenyl)-acryloylamino]propionic acid] was run?
A: 24 µM

Q: How did the IC50 turn out when `O=C(N[C@H](COCc1ccccc1)C(=O)O)/C(=C\c1ccc(Cl)c(Cl)c1)NC(=O)c1ccc(OC(F)(F)F)cc1` [Compound 30, (R)-3-Benzyloxy-2-[3-(3,4-dichlorophenyl)-2-(4-trifluoromethoxybenzoylamino)-acryloylamino]propionic acid] was run?
A: 54 µM

Q: How did the IC50 turn out when `CC(C)c1ccc(/C=C(/NC(=O)c2ccc(C(F)(F)F)cc2)C(=O)N[C@@H](CSCc2ccccc2)C(=O)O)cc1` [Compound 34, (R)-3-Benzylsulfanyl-2-[3-(4-isopropylphenyl)-2-(4-trifluoromethyl-benzoylamino)acryloylamino]propionic acid] was run?
A: 50 µM

Q: How did the IC50 turn out when `O=C(N[C@@H](CSCc1ccccc1)C(=O)O)/C(=C\c1ccc2ccccc2c1)NC(=O)c1ccc(C(F)(F)F)cc1` [Compound 35, (R)-3-Benzylsulfanyl-2-[3-naphthalen-2-yl-2-(4-trifluoromethylbenzoylamino)-acryloylamino]propionic acid] was run?
A: < 12.5 µM

Q: For `O=C(N[C@@H](Cc1ccc(Cl)cc1)C(=O)O)/C(=C\c1cccc(C(F)(F)F)c1)NC(=O)c1ccc(-c2ccccc2)cc1` [Compound 38, (S)-2-[2-[(Biphenyl-4-carbonyl)amino]-3-(3-trifluoromethylphenyl)acryloylamino]-3-(4-chlorophenyl)propionic acid], which IC50 is on record?
A: 17.3 µM

Q: Which IC50 does the source give for `O=C(N[C@H](Cc1ccc(Cl)cc1)C(=O)O)/C(=C\c1cccc(C(F)(F)F)c1)NC(=O)c1ccc(-c2ccccc2)cc1` [Compound 39, (R)-2-[2-[(Biphenyl-4-carbonyl)amino]-3-(3-trifluoromethylphenyl)acryloylamino]-3-(4-chlorophenyl)propionic acid] here?
A: 17 µM

Q: How did the IC50 turn out when `O=C(N[C@@H](CSCc1ccccc1)C(=O)O)/C(=C\c1cccc(Oc2ccc(Cl)cc2)c1)NC(=O)c1ccc(C(F)(F)F)cc1` [Compound 40, (R)-3-Benzylsulfanyl-2-[3-[3-(4-chlorophenoxy)phenyl]-2-(4-trifluoromethyl-benzoylamino)acryloylamino]propionic acid] was run?
A: 13.1 µM

Q: With `O=C(N[C@@H](CSCc1ccccc1)C(=O)O)/C(=C\c1ccc(Oc2ccccc2)cc1)NC(=O)c1ccc(Cl)cc1` [Compound 44, (R)-3-Benzylsulfanyl-2-[2-(4-chlorobenzoylamino)-3-(4-phenoxyphenyl)-acryloylamino]propionic acid] as the molecule, how does the IC50 read?
A: 26.5 µM

Q: For `O=C(N[C@@H](CSCc1ccccc1)C(=O)O)/C(=C\c1cccc(Br)c1)NC(=O)c1ccc(Oc2ccccc2)cc1` [Compound 48, (R)-3-Benzylsulfanyl-2-[3-(3-bromophenyl)-2-(4-phenoxybenzoylamino)-acryloylamino]propionic acid], which IC50 is on record?
A: 24.8 µM

Q: With `O=C(N[C@@H](COCc1ccccc1)C(=O)O)/C(=C\c1ccc(Cl)c(Cl)c1)NC(=O)c1ccc(Oc2ccccc2)cc1` [Compound 49, (S)-3-Benzyloxy-2-[3-(3,4-dichlorophenyl)-2-(4-phenoxybenzoylamino)-acryloylamino]propionic acid] as the molecule, how does the IC50 read?
A: 75.7 µM

Q: For `CN(C(=O)/C(=C\c1cccc(C(F)(F)F)c1)NC(=O)c1ccc(-c2ccccc2)cc1)C(COCc1ccccc1)C(=O)O` (centres unmarked) [Compound 53, 3-Benzyloxy-2-{[2-[(biphenyl-4-carbonyl)amino]-3-(3-trifluoromethylphenyl)-acryloyl]methylamino}propionic acid], which IC50 is on record?
A: 46 µM

Q: Which IC50 does the source give for `O=C(NC(Cc1ccc(F)cc1)C(=O)O)/C(=C\c1ccc(-c2ccccc2)cc1)NC(=O)c1ccc(C(F)(F)F)cc1` (centres unmarked) [Compound 54, 2-[3-Biphenyl-4-yl-2-(4-trifluoromethylbenzoylamino)acryloylamino]-3-(4-fluoro-phenyl)propionic acid] here?
A: 19 µM

Q: How did the IC50 turn out when `O=C(NC(Cc1ccc(Cl)cc1)C(=O)O)/C(=C\c1ccc(-c2ccccc2)cc1)NC(=O)c1ccc(C(F)(F)F)cc1` (centres unmarked) [Compound 55, 2-[3-Biphenyl-4-yl-2-(4-trifluoromethylbenzoylamino)acryloylamino]-3-(4-chloro-phenyl)propionic acid] was run?
A: 13 µM

Q: Which IC50 does the source give for `O=C(N[C@H](COCc1ccccc1)C(=O)O)/C(=C\c1ccc(Cl)c(Cl)c1)NC(=O)c1ccc(-c2ccccc2)cc1` [Compound 56, (R)-3-Benzyloxy-2-[2-[(biphenyl-4-carbonyl)amino]-3-(3,4-dichlorophenyl)-acryloylamino]propionic acid] here?
A: 20.2 µM

Q: For `O=C(N[C@@H](CSCc1ccccc1)C(=O)O)/C(=C\c1ccc(Oc2ccc(F)cc2)cc1)NC(=O)c1ccc(C(F)(F)F)cc1` [Compound 57, (R)-3-Benzylsulfanyl-2-[3-[4-(4-fluorophenoxy)phenyl]-2-(4-trifluoromethyl-benzoylamino)acryloylamino]propionic acid], which IC50 is on record?
A: 35 µM

Q: For `O=C(N[C@@H](CSCc1ccccc1)C(=O)O)/C(=C\c1ccc(Oc2ccc(Cl)cc2)cc1)NC(=O)c1ccc(C(F)(F)F)cc1` [Compound 58, (R)-3-Benzylsulfanyl-2-[3-[4-(4-chlorophenoxy)phenyl]-2-(4-trifluoromethyl-benzoylamino)acryloylamino]propionic acid], which IC50 is on record?
A: 48.5 µM

Q: Which IC50 does the source give for `O=C(O)C[C@@H](CNC(=O)/C(=C\c1cccc(C(F)(F)F)c1)NC(=O)c1ccc(-c2ccccc2)cc1)c1ccc(Cl)cc1` [Compound 62, (R)-4-[2-[(Biphenyl-4-carbonyl)amino]-3-(3-trifluoromethylphenyl)acryloylamino]-3-(4-chlorophenyl)butyric acid] here?
A: 87.8 µM

Q: With `O=C(N[C@@H](CSCc1ccccc1)C(=O)O)/C(=C\c1ccc(Cl)c(Cl)c1)NC(=O)C1CCN(c2nccc(C(F)(F)F)n2)CC1` [Compound 74, (R)-3-Benzylsulfanyl-2-(3-(3,4-dichlorophenyl)-2-{[1-(4-trifluoromethylpyrimidin-2-yl)piperidine-4-carbonyl]amino}acryloylamino)propionic acid] as the molecule, how does the IC50 read?
A: 33.8 µM

Q: `O=C(N[C@H](COCc1ccccc1)C(=O)O)/C(=C\c1ccc(I)cc1)NC(=O)C1CCN(c2nccc(C(F)(F)F)n2)CC1` [Compound 75, (R)-3-Benzyloxy-2-(3-(4-iodophenyl)-2-{[1-(4-trifluoromethylpyrimidin-2-yl)-piperidine-4-carbonyl]amino}acryloylamino)propionic acid] was tested. Which IC50 did it give?
A: 66.3 µM

Q: For `O=C(N[C@@H](CSCc1ccccc1)C(=O)O)/C(=C\c1ccc(I)cc1)NC(=O)C1CCN(c2nccc(C(F)(F)F)n2)CC1` [Compound 76, (R)-3-Benzylsulfanyl-2-(3-(4-iodophenyl)-2-{[1-(4-trifluoromethylpyrimidin-2-yl)-piperidine-4-carbonyl]amino}acryloylamino)propionic acid], which IC50 is on record?
A: 56.7 µM

Q: How did the IC50 turn out when `O=C(N[C@H](COCc1ccccc1)C(=O)O)/C(=C\c1cccc(C(F)(F)F)c1)NC(=O)C1CCN(c2nccc(C(F)(F)F)n2)CC1` [Compound 77, (R)-3-Benzyloxy-2-(3-(3-trifluoromethylphenyl)-2-{[1-(4-trifluoromethylpyrimidin-2-yl)-piperidine-4-carbonyl]amino}acryloylamino)propionic acid] was run?
A: 60 µM

Q: How did the IC50 turn out when `O=C(N[C@@H](CSCc1ccccc1)C(=O)O)/C(=C\c1cccc(C(F)(F)F)c1)NC(=O)C1CCN(c2nccc(C(F)(F)F)n2)CC1` [Compound 78, (R)-3-Benzylsulfanyl-2-(3-(3-trifluoromethylphenyl)-2-{[1-(4-trifluoromethylpyrimidin-2-yl)piperidine-4-carbonyl]amino}acryloylamino)propionic acid] was run?
A: 67.3 µM

Q: Which IC50 does the source give for `O=C(N[C@H](COCc1ccccc1)C(=O)O)/C(=C\c1ccc(OC(F)(F)F)cc1)NC(=O)C1CCN(c2nccc(C(F)(F)F)n2)CC1` [Compound 83, (R)-3-Benzyloxy-2-(3-(4-trifluoromethoxyphenyl)-2-{[1-(4-trifluoromethyl-pyrimidin-2-yl)piperidine-4-carbonyl]amino}acryloylamino)propionic acid] here?
A: 84.9 µM

Q: How did the IC50 turn out when `O=C(N[C@@H](CSCc1ccccc1)C(=O)O)/C(=C\c1ccc(OC(F)(F)F)cc1)NC(=O)C1CCN(c2nccc(C(F)(F)F)n2)CC1` [Compound 84, (R)-3-Benzylsulfanyl-2-(3-(4-trifluoromethoxyphenyl)-2-{[1-(4-trifluoromethyl-pyrimidin-2-yl)piperidine-4-carbonyl]amino}acryloylamino)propionic acid] was run?
A: 57.8 µM

Q: `O=C(NC(Cc1ccc(Cl)cc1)C(=O)O)/C(=C\c1cccc(C(F)(F)F)c1)NC(=O)c1ccc(-c2ccccc2)cc1` (centres unmarked) [Compound 97] was tested. Which IC50 did it give?
A: 13 µM

Q: For `O=C(NC(CCSCc1ccccc1)C(=O)O)/C(=C\c1cccc(C(F)(F)F)c1)NC(=O)c1ccc(-c2ccccc2)cc1` (centres unmarked) [Compound 98], which IC50 is on record?
A: 13 µM

Q: For `O=C(N[C@@H](CSCc1ccccc1)C(=O)O)/C(=C\c1ccc(Cl)cc1Cl)NC(=O)c1ccc(-c2ccccc2)cc1` [Compound 102], which IC50 is on record?
A: 40 µM
